Test results: patent publication US8822413B2, “Bifunctional hormone having alpha-MSH activity and natriuretic peptide activity and uses thereof” (Theratechnologies Inc., priority 2007, dated 2014)
Bridge positions count the residues as written; N and C are the ends. Square brackets hold non-standard residues; d marks the D form. Peptide text beside a SMILES is read from it.

Test system: Sprague-Dawley (SD) rats
Test: Effect on angiotensin II-induced hypertension in SD rat
Assay type: in vivo
Conditions: Ang II infusion, FIG. 2
Source text: BNP (Natrecor®) was approved by the FDA for lowering blood pressure in hypertensive crisis. Its natural homolog, ANP, was also shown to rapidly reduce blood pressure and is useful as a therapeutic in hypertensive crisis. Activation of renin-angiotensin system is implicated in several medical indications involving hypertension. Therefore, a rat model in which blood pressure was raised with the continuous infusion of angiotensin II was used, and the potency/efficacy of native ANP (peptide #2 in the figures) and the bifunctional hormone of SEQ ID NO: 33 (peptide #33 in the figures) to reduce blood pressure was tested following intravenous bolus injections of the peptides in SD rats.
Animals. Sprague-Dawley (SD) rats (male, weighing from 300 to 330 g) were obtained from Charles River Inc. Animals were maintained on standard laboratory chow under a 12:12 light:dark cycle.
Surgical preparation. The rats were anesthetized with isoflurane 2.5% for the duration of the experiment. Animals were placed under radiant warmer to keep the temperature at 37.5° C. The carotid artery was catheterized (Polyethylene™ Tubing PE90) for continuous arterial blood pressure recording with a pressure transducer (Statham) connected to a multichannel recorder (TA240 Gould). […] During this period, the stability of blood pressure was assessed. […]

CC[C@H](C)[C@@H]1NC(=O)[C@H](CCCNC(=N)N)NC(=O)[C@H](CC(=O)O)NC(=O)[C@H](CCSC)NC(=O)[C@H](CCCNC(=N)N)NC(=O)CNC(=O)CNC(=O)[C@H](Cc2ccccc2)NC(=O)[C@@H](NC(=O)[C@H](CCSC)NC(=O)[C@@H]2CCCN2C(=O)[C@H](CCCCN)NC(=O)CNC(=O)[C@H](Cc2c[nH]c3ccccc23)NC(=O)[C@H](CCCNC(=N)N)NC(=O)[C@@H](Cc2ccccc2)NC(=O)[C@H](Cc2c[nH]cn2)NC(C)=O)CSSC[C@@H](C(=O)N[C@@H](CC(N)=O)C(=O)N[C@@H](CO)C(=O)N[C@@H](Cc2ccccc2)C(=O)N[C@@H](CCCNC(=N)N)C(=O)N[C@@H](Cc2ccc(O)cc2)C(N)=O)NC(=O)CNC(=O)[C@H](CC(C)C)NC(=O)CNC(=O)[C@H](CO)NC(=O)[C@H](CCC(N)=O)NC(=O)[C@H](C)NC(=O)CNC1=O [SEQ ID NO: 33, Ac-H-f-R-W-G-K-P-M-[C-F-G-G-R-M-D-R-I-G-A-Q-S-G-L-G-C]-N-S-F-R-Y-NH2] (Ac-H[dF]RWGKPMCFGGRMDRIGAQSGLGCNSFRY-NH2; disulfide 9-25)
effect on blood pressure raised by angiotensin II (iv bolus doses of 400 μg/kg and above): effect similar to that of ANP | effect on blood pressure raised by angiotensin II (iv bolus doses of up to 300 μg/kg): did not induced hypotension
